Measurements as given in US20160009751A1, “C-19 HYDROXY PREGNENES” (LEO Pharma A/S, priority 2014, published 2016).

Tests used:
[1] = molecular target: T1, recombinant glucocorticoid receptor (GR) (Homo sapiens, UniProt P04150); assay: Glucocorticoid receptor (GR) competitive binding assay (PolarScreen, fluorescence polarization); details: competition with Fluormone GS1, 2 hours at room temperature; relative IC50; read-out: GR binding; Rel IC50
T1 sequence (P04150 1-777): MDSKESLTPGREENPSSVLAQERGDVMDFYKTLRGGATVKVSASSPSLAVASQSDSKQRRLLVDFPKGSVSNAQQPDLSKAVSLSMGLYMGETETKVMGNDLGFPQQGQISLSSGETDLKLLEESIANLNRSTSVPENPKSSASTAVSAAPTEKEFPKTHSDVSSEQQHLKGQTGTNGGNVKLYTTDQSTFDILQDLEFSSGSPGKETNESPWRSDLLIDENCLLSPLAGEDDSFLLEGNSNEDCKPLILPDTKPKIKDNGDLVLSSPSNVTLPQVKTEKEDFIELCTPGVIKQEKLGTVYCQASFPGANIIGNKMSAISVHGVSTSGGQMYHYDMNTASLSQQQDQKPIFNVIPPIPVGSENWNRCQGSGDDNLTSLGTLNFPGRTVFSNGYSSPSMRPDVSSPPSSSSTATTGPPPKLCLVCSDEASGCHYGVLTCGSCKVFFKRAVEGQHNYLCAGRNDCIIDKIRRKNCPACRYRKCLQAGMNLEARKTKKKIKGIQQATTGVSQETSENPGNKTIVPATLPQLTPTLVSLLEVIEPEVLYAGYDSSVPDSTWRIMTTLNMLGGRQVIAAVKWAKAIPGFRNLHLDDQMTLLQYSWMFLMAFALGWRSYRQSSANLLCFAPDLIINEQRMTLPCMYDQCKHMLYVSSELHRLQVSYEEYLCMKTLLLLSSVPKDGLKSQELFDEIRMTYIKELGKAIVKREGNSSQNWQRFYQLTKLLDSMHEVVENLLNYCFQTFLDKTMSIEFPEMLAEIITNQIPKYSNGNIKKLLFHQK
Method: Glucocorticoid receptor binding was determined by competitive receptor binding assay using the PolarScreen™ Glucocorticoid Receptor Competitor Assay Kit, Green (Life Technologies, catalogue number A15897) in a 384-well format according to the manufacturer's instructions. Briefly, serial dilutions of test and reference compounds were prepared in 384-well plates. Subsequently, the steroidal competitor Fluormone™ GS1 and recombinant glucocorticoid receptor (GR) were added to all wells and the plate was incubated for 2 hours at room temperature and protected from light. Finally, polarization values in each well were determined by reading the plate in an EnVision (PerkinElmer) device.

[2] = test system: Interleukin-12B (IL-12B) release from primary human monocytes (PBMC); assay: Interleukin-12B (IL-12B) release from LPS-stimulated primary human monocytes (PBMC); format: cell-based; details: 100 ng/ml LPS for 18 h, ELISA, relative IC50, read-out: Interleukin-12B (IL-12B), Rel IC50
From the text: The assay was adopted from a previously reported method (Schäcke et al, Br 3 Pharmacol (2009); 158(4): 1088-103) and is based on PBMC isolated from human blood. Stimulation of these cells with lipopolysaccharide (LPS) induces—among many other processes—the synthesis and secretion of the cytokine IL-12B. Both steroidal (glucocorticoids) and non-steroidal glucocorticoid receptor agonists act anti-inflammatory—e.g. by preventing DNA-binding of inflammatory transcription factors like AP-1 or NFkB—resulting in decreased synthesis/secretion of IL12B.
For compound testing, frozen stocks of PBMC were thawed, seeded in 96-well plates (1.2E5 cells/well) and then incubated in RPMI-1640 culture medium with 100 ng/ml LPS for 18 h with or without test compounds (pre-incubation with reference/test compounds for 1 h before addition of LPS). Then, IL-12B concentration in the cell culture supernatants was detected by hIL-12B-specific ELISA (Quantikine® human IL-12 p40 Immunoassay, R&D Systems Cat #SP400).

[3] = molecular target: T2, mineralocorticoid receptor (MR) (Homo sapiens, UniProt P08235); assay: Mineralocorticoid receptor (MR) antagonism assay (GeneBLAzer MR DA, beta-lactamase reporter); format: cell-based; details: 0.14 nM-1 uM test compound, 10 nM aldosterone; relative IC50; read-out: Mineral corticoid receptor (MR) antagonism; Rel IC50
T2 construct: UAS-driven beta-lactamase reporter
T2 sequence (P08235 726-984 limits assumed): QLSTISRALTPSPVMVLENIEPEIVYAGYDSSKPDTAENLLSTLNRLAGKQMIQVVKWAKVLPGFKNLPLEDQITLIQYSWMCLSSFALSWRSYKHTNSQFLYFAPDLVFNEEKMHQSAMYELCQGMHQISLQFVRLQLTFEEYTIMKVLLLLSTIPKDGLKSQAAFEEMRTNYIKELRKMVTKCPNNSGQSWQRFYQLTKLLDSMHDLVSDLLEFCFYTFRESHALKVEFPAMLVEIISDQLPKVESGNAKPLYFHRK
Method: Agonistic and antagonistic interaction with the mineralocorticoid receptor was determined using the GeneBLAzer® MR DA Assay Kit (Life Technologies, catalogue number K1409) in a 96-well format according to the manufacturer's instructions. For determination of MR agonistic effect, cells were incubated with 0.14 nM-1 uM of test compound; the MR agonist aldosterone was included as a positive control in the same concentration range. After 16 h incubation, assay substrate (LiveBLAzer™-FRET B/G) was added to all wells and cells were incubated for 2 h followed by fluorometric detection (409/447 nm excitation and emission wavelength, respectively) of substrate conversion by beta-lactamase.
After 0.5 h, 10 nM of the MR agonist aldosterone was added to all wells and cells were incubated for another 15.5 h. After that, assay substrate (LiveBLAzer™-FRET B/G) was added to all wells and cells were incubated for 2 h followed by fluorometric detection (409/447 nm excitation and emission wavelength, respectively) substrate conversion by beta lactamase.

`CCCCC(=O)O[C@]1(C(=O)CO)[C@@H](C)C[C@H]2[C@@H]3CCC4=CC(=O)C=C[C@]4(C)[C@@]3(F)[C@@H](O)C[C@@]21C` [Bethamethasone valerate] was tested, and the IC50 [1] was 0.007 µM, the IC50 [2] was < 0.001 µM and the IC50 [3] was 0.137 µM.
In the case of `CCC(=O)O[C@]1(C(=O)CCl)[C@@H](C)C[C@H]2[C@@H]3CCC4=CC(=O)C=C[C@]4(C)[C@@]3(F)[C@@H](O)C[C@@]21C` [Clobetasol propionate], the IC50 [1] is reported as 0.006 µM, the IC50 [2] is reported as < 0.001 µM and the IC50 [3] is reported as 0.171 µM.
For `CCC(=O)O[C@]1(C(=O)CCl)CC[C@H]2[C@@H]3CCC4=CC(=O)CC[C@]4(CO)[C@H]3[C@@H](O)C[C@@]21C` [Compound 1, (8S,9S,10S,11S,13S,14S,17R)-17-(2-chloroacetyl)-11-hydroxy-10-(hydroxymethyl-13-methyl-3-oxo-2,3,6,7,8,9,10,11,12,13,14,15,16,17-tetradecahydro-1H-cyclopenta[a]phenanthren-17-yl propionate], the IC50 [1] was 0.025 µM, the IC50 [2] was 0.036 µM and the IC50 [3] was > 1 µM.
For `CCC(=O)O[C@]1(C(=O)CCl)CC[C@H]2[C@@H]3C[C@@H](F)C4=CC(=O)CC[C@]4(CO)[C@H]3[C@@H](O)C[C@@]21C` [Compound 2, (6R,8S,9S,10S,11S,13S,14S,17R)-17-(2-chloroacetyl)-6-fluoro-11-hydroxy-10-(hydroxymethyl)-13-methyl-3-oxo-2,3,6,7,8,9,10,11,12,13,14,15,16,17-tetradecahydro-1H-cyclopenta[a]phenanthren-17-yl propionate], the IC50 [1] was 0.04 µM and the IC50 [2] was 0.031 µM.
